# Paper PMC6713354, “Structural and biochemical studies of an NB-ARC domain from a plant NLR immune receptor” (PLoS ONE, 2019)
# Key:
# NRC1 NB-ARC domain [1] = target: T1, NRC1 NB-ARC domain (Solanum lycopersicum, UniProt A1X877); experiment: X-ray crystal structure, […] A (native); SeMet SAD map at […] A; conditions: co-purified ligand; nucleotide-binding pocket; E. coli-expressed protein; crystals at pH 4.5
# T1 construct: NB-ARC domain, residues 150-494; E. coli Lemo21(DE3) (pOPIN-S3C, 6xHis-SUMO) or Sf9 cells (pOPIN-F, 6xHis); N-terminal tag cut with 3C protease; 346 residues in expressed construct; about 40 kDa monomer
# T1 sequence (A1X877 entry or part of it): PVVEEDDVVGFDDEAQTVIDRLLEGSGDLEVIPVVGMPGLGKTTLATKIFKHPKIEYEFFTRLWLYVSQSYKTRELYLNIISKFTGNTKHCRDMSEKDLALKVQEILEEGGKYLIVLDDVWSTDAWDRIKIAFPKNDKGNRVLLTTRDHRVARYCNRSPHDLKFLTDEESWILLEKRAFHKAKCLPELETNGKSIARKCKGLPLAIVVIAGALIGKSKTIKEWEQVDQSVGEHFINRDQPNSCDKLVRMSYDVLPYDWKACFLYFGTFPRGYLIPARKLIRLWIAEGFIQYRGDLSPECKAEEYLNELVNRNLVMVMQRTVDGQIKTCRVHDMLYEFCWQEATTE
# NRC1 NB-ARC domain [2] = target: T1, NRC1 NB-ARC domain; experiment: luciferase assay of nucleotide released by boiling, ADP converted to ATP with pyruvate kinase; type: binding; conditions: co-purified ligand, no ADP added; protein from E. coli and from Sf9 cells; no ATP detected
# NRC1 NB-ARC domain [3] = target: T2, NRC1 NB-ARC domain (Solanum lycopersicum, UniProt A1X877, D268N); experiment: as above; type: binding; conditions: co-purified ligand, no ADP added; protein from Sf9 cells; Walker B mutant; no ATP detected
# T2 construct: NB-ARC domain, residues 150-494; E. coli Lemo21(DE3) (pOPIN-S3C, 6xHis-SUMO) or Sf9 cells (pOPIN-F, 6xHis); N-terminal tag cut with 3C protease; 346 residues in expressed construct; about 40 kDa monomer
# T2 sequence (A1X877 entry or part of it D268N): as the sequence (A1X877 entry or part of it) above, with D119N counted along it
structure (smiles),measurement,setting,value
Nc1ncnc2c1ncn2[C@@H]1O[C@H](COP(=O)(O)OP(=O)(O)O)[C@@H](O)[C@H]1O [ADP],"X-ray crystal structure, 2.5 A (native); SeMet SAD map at 3.03 A",NRC1 NB-ARC domain [1],"allowed us to unambiguously position a molecule of ADP, and the side-chains of interacting residues"
same,% ADP occupancy,NRC1 NB-ARC domain [2],all three NRC1 NB-ARC proteins co-purified with ADP with high occupancy
same,% ADP occupancy,NRC1 NB-ARC domain [3],"NRC1 NB-ARC^D268N, a mutant designed to abolish ATPase activity, also co-purified with ADP"
